For one assay, the target named is CSK (human) (UniProt P41240). Description: radiometric filter-binding kinase assay, Kinase HotSpot. The following applies: compound 0.5 µM; ATP 10 µM.
Sequence of IKBKB (human) (O14920 whole entry, looked up): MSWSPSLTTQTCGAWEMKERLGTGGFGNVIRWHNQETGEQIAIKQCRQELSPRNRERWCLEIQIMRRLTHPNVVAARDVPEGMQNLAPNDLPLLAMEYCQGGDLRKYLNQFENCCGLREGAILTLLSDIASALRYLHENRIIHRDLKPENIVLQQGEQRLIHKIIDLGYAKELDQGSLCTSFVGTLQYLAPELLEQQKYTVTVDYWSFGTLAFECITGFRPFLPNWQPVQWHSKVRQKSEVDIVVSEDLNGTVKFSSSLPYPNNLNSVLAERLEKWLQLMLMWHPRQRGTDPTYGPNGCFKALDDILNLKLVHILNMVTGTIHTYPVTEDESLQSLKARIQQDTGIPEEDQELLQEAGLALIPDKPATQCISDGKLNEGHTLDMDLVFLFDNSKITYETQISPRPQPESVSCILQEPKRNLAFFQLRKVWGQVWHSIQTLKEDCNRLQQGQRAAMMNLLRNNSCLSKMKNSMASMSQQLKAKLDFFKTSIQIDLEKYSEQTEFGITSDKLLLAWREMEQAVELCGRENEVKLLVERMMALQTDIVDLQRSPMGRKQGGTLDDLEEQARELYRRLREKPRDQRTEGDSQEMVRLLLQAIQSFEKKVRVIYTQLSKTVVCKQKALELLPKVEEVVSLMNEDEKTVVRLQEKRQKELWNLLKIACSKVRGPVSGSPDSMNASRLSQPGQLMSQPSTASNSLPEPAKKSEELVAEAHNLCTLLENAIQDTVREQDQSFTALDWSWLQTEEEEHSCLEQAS
Sequence of ULK1 (human) (O75385 whole entry, looked up): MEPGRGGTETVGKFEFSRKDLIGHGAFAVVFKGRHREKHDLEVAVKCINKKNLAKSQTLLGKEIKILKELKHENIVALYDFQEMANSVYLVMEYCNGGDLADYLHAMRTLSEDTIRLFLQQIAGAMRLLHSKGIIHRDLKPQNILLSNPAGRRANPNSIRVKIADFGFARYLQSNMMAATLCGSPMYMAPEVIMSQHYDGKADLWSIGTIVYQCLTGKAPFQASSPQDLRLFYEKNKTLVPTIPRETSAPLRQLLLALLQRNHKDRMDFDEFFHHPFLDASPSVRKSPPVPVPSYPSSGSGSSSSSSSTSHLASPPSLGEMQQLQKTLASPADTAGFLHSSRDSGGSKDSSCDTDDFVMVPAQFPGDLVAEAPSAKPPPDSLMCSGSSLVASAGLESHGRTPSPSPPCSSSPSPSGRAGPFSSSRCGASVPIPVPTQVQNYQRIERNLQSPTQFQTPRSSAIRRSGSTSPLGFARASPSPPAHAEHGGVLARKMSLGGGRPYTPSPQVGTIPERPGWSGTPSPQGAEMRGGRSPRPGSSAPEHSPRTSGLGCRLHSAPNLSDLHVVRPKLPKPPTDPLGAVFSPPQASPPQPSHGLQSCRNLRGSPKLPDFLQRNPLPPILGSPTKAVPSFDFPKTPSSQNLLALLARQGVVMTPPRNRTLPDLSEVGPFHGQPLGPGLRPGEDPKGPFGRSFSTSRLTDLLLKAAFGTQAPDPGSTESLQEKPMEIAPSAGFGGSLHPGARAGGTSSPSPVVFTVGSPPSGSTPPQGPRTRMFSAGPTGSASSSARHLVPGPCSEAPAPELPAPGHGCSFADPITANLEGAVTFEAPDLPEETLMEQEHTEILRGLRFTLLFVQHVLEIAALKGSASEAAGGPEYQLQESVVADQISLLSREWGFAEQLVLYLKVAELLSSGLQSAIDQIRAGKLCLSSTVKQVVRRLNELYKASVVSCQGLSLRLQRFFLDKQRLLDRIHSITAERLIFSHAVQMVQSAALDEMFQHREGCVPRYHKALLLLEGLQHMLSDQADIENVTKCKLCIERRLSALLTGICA
Sequence of MATK (human) (P42679 whole entry, looked up): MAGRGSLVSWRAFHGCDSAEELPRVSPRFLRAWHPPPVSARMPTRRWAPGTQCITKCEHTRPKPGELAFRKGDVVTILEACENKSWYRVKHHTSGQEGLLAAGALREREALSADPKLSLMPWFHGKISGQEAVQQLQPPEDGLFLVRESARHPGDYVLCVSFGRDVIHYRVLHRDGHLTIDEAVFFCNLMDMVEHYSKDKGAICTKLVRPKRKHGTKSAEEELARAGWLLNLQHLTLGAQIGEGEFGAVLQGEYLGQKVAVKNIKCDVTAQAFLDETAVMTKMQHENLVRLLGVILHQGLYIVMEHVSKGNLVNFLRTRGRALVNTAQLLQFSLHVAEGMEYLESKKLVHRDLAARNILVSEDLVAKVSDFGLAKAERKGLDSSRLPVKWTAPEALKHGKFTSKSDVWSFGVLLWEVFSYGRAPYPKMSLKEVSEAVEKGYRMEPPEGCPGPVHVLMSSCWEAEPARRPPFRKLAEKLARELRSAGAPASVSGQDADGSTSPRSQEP
Sequence of MARK4 (human) (Q96L34 whole entry, looked up): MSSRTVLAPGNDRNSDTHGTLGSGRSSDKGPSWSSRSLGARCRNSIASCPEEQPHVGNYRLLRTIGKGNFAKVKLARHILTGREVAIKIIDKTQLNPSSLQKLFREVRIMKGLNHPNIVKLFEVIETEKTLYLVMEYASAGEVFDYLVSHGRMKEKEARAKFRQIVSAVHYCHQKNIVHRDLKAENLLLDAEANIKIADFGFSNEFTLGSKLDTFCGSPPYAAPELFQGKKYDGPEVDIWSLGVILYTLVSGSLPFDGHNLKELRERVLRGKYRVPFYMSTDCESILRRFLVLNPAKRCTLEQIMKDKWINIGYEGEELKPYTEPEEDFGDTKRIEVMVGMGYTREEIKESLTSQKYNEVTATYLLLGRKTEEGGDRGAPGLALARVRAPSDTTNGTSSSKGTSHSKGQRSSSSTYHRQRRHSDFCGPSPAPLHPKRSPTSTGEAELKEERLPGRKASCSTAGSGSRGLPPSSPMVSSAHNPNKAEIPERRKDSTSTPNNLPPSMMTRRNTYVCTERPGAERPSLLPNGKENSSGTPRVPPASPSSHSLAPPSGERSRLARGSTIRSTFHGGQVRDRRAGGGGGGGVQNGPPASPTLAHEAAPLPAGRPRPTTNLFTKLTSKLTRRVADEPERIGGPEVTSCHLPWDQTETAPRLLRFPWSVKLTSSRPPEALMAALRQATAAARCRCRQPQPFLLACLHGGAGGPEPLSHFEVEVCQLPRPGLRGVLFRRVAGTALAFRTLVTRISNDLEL
Sequence of CSK (human) (P41240 whole entry, looked up): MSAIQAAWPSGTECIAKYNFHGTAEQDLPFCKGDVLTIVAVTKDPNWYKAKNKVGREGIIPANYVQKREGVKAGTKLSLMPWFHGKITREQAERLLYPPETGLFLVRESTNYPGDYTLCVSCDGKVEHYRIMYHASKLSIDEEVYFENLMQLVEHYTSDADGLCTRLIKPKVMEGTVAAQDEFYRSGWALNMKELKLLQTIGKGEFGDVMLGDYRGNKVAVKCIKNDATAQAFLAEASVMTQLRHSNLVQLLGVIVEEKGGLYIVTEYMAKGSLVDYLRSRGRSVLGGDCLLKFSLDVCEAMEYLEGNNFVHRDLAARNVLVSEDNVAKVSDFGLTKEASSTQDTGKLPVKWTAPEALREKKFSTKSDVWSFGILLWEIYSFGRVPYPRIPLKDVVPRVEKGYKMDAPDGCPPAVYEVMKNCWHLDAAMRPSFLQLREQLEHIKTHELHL
Turning to `O=C1NC(=O)C(c2cn(CCCn3ccnc3)c3ccccc23)=C1Nc1ccccc1`, the residual activity (commonly the signal under treatment as a percentage of the control signal) is 110%.

Consider `CCCC(=O)Oc1ccc2[nH]c(C(=O)c3cc4ccccc4[nH]3)cc2c1`, for which the residual activity was determined as 83.5%.

On to `CCN(CC)CCNC(=O)c1c(C)[nH]c(/C=C2\C(=O)Nc3ccc(Cl)cc32)c1C`, for which the residual activity came out at 86.3%.

In another assay the target is EPHA6 (human) (UniProt Q9UF33). Described as above. The following applies: compound 0.5 µM; ATP 10 µM.
On to `O=C1NC(=O)C(c2cn(CCCn3ccnc3)c3ccccc23)=C1Nc1ccccc1`, for which the residual activity was found to be 106%.

Turning to `CCCC(=O)Oc1ccc2[nH]c(C(=O)c3cc4ccccc4[nH]3)cc2c1`, the residual activity turned out to be 88%.

`CCN(CC)CCNC(=O)c1c(C)[nH]c(/C=C2\C(=O)Nc3ccc(Cl)cc32)c1C`: the residual activity was 45.7%.

The next assay deals with EPHB4 (human) (UniProt P54760). The description is as above. The following applies: compound 0.5 µM; ATP 10 µM.
Regarding `O=C1NC(=O)C(c2cn(CCCn3ccnc3)c3ccccc23)=C1Nc1ccccc1`, the residual activity worked out at 87.9%.

As for `CCCC(=O)Oc1ccc2[nH]c(C(=O)c3cc4ccccc4[nH]3)cc2c1`, the residual activity turned out to be 101%.

For `CCN(CC)CCNC(=O)c1c(C)[nH]c(/C=C2\C(=O)Nc3ccc(Cl)cc32)c1C`, the residual activity amounted to 76.9%.

The next assay addresses PAK7 (human) (UniProt Q9P286). The description is as above. The following applies: compound 0.5 µM; ATP 10 µM.
Take `O=C1NC(=O)C(c2cn(CCCn3ccnc3)c3ccccc23)=C1Nc1ccccc1`: the residual activity turned out to be 94.2%.

As to `CCCC(=O)Oc1ccc2[nH]c(C(=O)c3cc4ccccc4[nH]3)cc2c1`, the residual activity worked out at 91%.

Consider `CCN(CC)CCNC(=O)c1c(C)[nH]c(/C=C2\C(=O)Nc3ccc(Cl)cc32)c1C`, for which the residual activity came out at 58.9%.

The target of a further assay is HCK (human) (UniProt P08631). The description is as above. As to conditions: compound 0.5 µM; ATP 10 µM.
Sequence of HCK (human) (P08631 whole entry, looked up): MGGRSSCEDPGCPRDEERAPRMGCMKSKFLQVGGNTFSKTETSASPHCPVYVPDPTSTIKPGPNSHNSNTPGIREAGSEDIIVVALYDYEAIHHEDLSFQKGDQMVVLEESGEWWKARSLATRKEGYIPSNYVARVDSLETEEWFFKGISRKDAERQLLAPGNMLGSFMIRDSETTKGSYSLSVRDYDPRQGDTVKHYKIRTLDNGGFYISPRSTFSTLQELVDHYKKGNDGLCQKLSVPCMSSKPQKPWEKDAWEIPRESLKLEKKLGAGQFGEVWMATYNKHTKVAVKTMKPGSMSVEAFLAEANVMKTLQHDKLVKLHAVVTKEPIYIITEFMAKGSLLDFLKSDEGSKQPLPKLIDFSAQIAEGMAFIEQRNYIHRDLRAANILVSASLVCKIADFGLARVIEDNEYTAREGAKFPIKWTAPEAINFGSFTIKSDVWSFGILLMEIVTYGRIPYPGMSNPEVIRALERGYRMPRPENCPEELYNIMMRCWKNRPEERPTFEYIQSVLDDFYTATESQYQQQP
As for `O=C1NC(=O)C(c2cn(CCCn3ccnc3)c3ccccc23)=C1Nc1ccccc1`, the residual activity worked out at 97.9%.

Turning to `CCCC(=O)Oc1ccc2[nH]c(C(=O)c3cc4ccccc4[nH]3)cc2c1`, the residual activity was 95.1%.

`CCN(CC)CCNC(=O)c1c(C)[nH]c(/C=C2\C(=O)Nc3ccc(Cl)cc32)c1C`: the residual activity came out at 34.3%.

The target of the next assay is MAP3K10 (human) (UniProt Q02779). The assay is described as above. As to conditions: compound 0.5 µM; ATP 10 µM.
Sequence of MAP3K10 (human) (Q02779 whole entry, looked up): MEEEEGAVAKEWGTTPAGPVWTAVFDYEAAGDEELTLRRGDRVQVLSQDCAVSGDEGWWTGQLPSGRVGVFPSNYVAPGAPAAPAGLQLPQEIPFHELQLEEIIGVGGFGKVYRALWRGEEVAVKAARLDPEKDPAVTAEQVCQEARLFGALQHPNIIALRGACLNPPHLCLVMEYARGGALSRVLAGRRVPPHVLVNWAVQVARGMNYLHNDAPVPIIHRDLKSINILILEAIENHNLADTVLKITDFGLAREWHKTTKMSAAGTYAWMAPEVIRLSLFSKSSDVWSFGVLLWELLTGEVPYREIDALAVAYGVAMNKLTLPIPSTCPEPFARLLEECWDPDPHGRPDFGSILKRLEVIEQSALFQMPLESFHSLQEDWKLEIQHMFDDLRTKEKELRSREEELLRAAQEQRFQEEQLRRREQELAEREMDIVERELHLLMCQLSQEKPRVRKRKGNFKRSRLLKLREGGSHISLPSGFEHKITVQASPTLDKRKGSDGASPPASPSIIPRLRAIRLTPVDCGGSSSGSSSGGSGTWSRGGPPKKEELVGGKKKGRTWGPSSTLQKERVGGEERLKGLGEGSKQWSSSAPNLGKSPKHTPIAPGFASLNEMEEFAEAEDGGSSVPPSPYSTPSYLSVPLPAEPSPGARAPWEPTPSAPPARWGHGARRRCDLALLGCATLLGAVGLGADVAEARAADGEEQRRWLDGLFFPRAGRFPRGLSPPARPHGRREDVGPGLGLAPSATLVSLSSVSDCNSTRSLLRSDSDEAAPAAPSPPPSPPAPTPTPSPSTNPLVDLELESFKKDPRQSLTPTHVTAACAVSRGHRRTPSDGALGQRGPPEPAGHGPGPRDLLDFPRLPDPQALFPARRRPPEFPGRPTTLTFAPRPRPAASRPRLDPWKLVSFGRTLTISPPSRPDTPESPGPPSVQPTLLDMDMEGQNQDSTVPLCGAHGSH
`O=C1NC(=O)C(c2cn(CCCn3ccnc3)c3ccccc23)=C1Nc1ccccc1`: the residual activity is 34.5%.

With `CCCC(=O)Oc1ccc2[nH]c(C(=O)c3cc4ccccc4[nH]3)cc2c1`, the residual activity turned out to be 87.7%.

`CCN(CC)CCNC(=O)c1c(C)[nH]c(/C=C2\C(=O)Nc3ccc(Cl)cc32)c1C`: the residual activity is 82.8%.

The next assay concerns the target PRKCH (human) (UniProt P24723). The assay is described as above. The following applies: compound 0.5 µM; ATP 10 µM.
As for `O=C1NC(=O)C(c2cn(CCCn3ccnc3)c3ccccc23)=C1Nc1ccccc1`, the residual activity came to 29.7%.

`CCCC(=O)Oc1ccc2[nH]c(C(=O)c3cc4ccccc4[nH]3)cc2c1`: the residual activity stood at 93.6%.

As for `CCN(CC)CCNC(=O)c1c(C)[nH]c(/C=C2\C(=O)Nc3ccc(Cl)cc32)c1C`, the residual activity is 86.1%.

For another assay, the target named is ACVR1 (human) (UniProt Q04771). The assay is described as above. The following applies: compound 0.5 µM; ATP 10 µM.
With `O=C1NC(=O)C(c2cn(CCCn3ccnc3)c3ccccc23)=C1Nc1ccccc1`, the residual activity was 94.4%.

Turning to `CCCC(=O)Oc1ccc2[nH]c(C(=O)c3cc4ccccc4[nH]3)cc2c1`, the residual activity stood at 100%.

Consider `CCN(CC)CCNC(=O)c1c(C)[nH]c(/C=C2\C(=O)Nc3ccc(Cl)cc32)c1C`, for which the residual activity was determined as 108%.

A further assay has as its target ULK1 (human) (UniProt O75385). The description is as above. The following applies: compound 0.5 µM; ATP 10 µM.
In the case of `O=C1NC(=O)C(c2cn(CCCn3ccnc3)c3ccccc23)=C1Nc1ccccc1`, the residual activity stood at 90.1%.

With `CCCC(=O)Oc1ccc2[nH]c(C(=O)c3cc4ccccc4[nH]3)cc2c1`, the residual activity amounted to 103%.

For `CCN(CC)CCNC(=O)c1c(C)[nH]c(/C=C2\C(=O)Nc3ccc(Cl)cc32)c1C`, the residual activity turned out to be 13.6%.

A further assay deals with DSTYK (human) (UniProt Q6XUX3). The description is as above. As to conditions: compound 0.5 µM; ATP 10 µM.
As for `O=C1NC(=O)C(c2cn(CCCn3ccnc3)c3ccccc23)=C1Nc1ccccc1`, the residual activity was 102%.

Regarding `CCCC(=O)Oc1ccc2[nH]c(C(=O)c3cc4ccccc4[nH]3)cc2c1`, the residual activity was 94.9%.

As for `CCN(CC)CCNC(=O)c1c(C)[nH]c(/C=C2\C(=O)Nc3ccc(Cl)cc32)c1C`, the residual activity came to 105%.

A further assay has as its target MARK4 (human) (UniProt Q96L34). The description is as above. As to conditions: compound 0.5 µM; ATP 10 µM.
As for `O=C1NC(=O)C(c2cn(CCCn3ccnc3)c3ccccc23)=C1Nc1ccccc1`, the residual activity amounted to 92.6%.

For `CCCC(=O)Oc1ccc2[nH]c(C(=O)c3cc4ccccc4[nH]3)cc2c1`, the residual activity is 84.1%.

On to `CCN(CC)CCNC(=O)c1c(C)[nH]c(/C=C2\C(=O)Nc3ccc(Cl)cc32)c1C`, for which the residual activity was 7.19%.

For a further assay, the target named is STK11 (human) (UniProt Q15831). The assay is described as above. The following applies: compound 0.5 µM; ATP 10 µM.
With `O=C1NC(=O)C(c2cn(CCCn3ccnc3)c3ccccc23)=C1Nc1ccccc1`, the residual activity stood at 89.9%.

`CCCC(=O)Oc1ccc2[nH]c(C(=O)c3cc4ccccc4[nH]3)cc2c1`: the residual activity came to 101%.

Consider `CCN(CC)CCNC(=O)c1c(C)[nH]c(/C=C2\C(=O)Nc3ccc(Cl)cc32)c1C`, for which the residual activity stood at 80.7%.

For the next assay, the target named is CDK9 CCNK (human) (UniProt O75909+P50750). The assay is described as above. As to conditions: compound 0.5 µM; ATP 10 µM.
For `O=C1NC(=O)C(c2cn(CCCn3ccnc3)c3ccccc23)=C1Nc1ccccc1`, the residual activity came out at 64.6%.

For the compound `CCCC(=O)Oc1ccc2[nH]c(C(=O)c3cc4ccccc4[nH]3)cc2c1`, the residual activity was 104%.

Take `CCN(CC)CCNC(=O)c1c(C)[nH]c(/C=C2\C(=O)Nc3ccc(Cl)cc32)c1C`: the residual activity worked out at 40.1%.

The target in a further assay is MERTK (human) (UniProt Q12866). The description is as above. The following applies: compound 0.5 µM; ATP 10 µM.
For `O=C1NC(=O)C(c2cn(CCCn3ccnc3)c3ccccc23)=C1Nc1ccccc1`, the residual activity worked out at 86.1%.

On to `CCCC(=O)Oc1ccc2[nH]c(C(=O)c3cc4ccccc4[nH]3)cc2c1`, for which the residual activity is 96.7%.

For the compound `CCN(CC)CCNC(=O)c1c(C)[nH]c(/C=C2\C(=O)Nc3ccc(Cl)cc32)c1C`, the residual activity amounted to 11.5%.

A further assay addresses NUAK2 (human) (UniProt Q9H093). Described as above. As to conditions: compound 0.5 µM; ATP 10 µM.
Consider `O=C1NC(=O)C(c2cn(CCCn3ccnc3)c3ccccc23)=C1Nc1ccccc1`, for which the residual activity worked out at 113%.

For `CCCC(=O)Oc1ccc2[nH]c(C(=O)c3cc4ccccc4[nH]3)cc2c1`, the residual activity came out at 73.4%.

With `CCN(CC)CCNC(=O)c1c(C)[nH]c(/C=C2\C(=O)Nc3ccc(Cl)cc32)c1C`, the residual activity is 70.7%.

Another assay has as its target DYRK2 (human) (UniProt Q92630). The description is as above. As to conditions: compound 0.5 µM; ATP 10 µM.
For the compound `O=C1NC(=O)C(c2cn(CCCn3ccnc3)c3ccccc23)=C1Nc1ccccc1`, the residual activity turned out to be 97.3%.

In the case of `CCCC(=O)Oc1ccc2[nH]c(C(=O)c3cc4ccccc4[nH]3)cc2c1`, the residual activity came out at 91.8%.

On to `CCN(CC)CCNC(=O)c1c(C)[nH]c(/C=C2\C(=O)Nc3ccc(Cl)cc32)c1C`, for which the residual activity is 82.7%.

A further assay concerns the target CDK5 CDK5R1 p35 (human) (UniProt Q00535+Q15078). The assay is described as above. As to conditions: compound 0.5 µM; ATP 10 µM.
Regarding `O=C1NC(=O)C(c2cn(CCCn3ccnc3)c3ccccc23)=C1Nc1ccccc1`, the residual activity turned out to be 91.4%.

`CCCC(=O)Oc1ccc2[nH]c(C(=O)c3cc4ccccc4[nH]3)cc2c1`: the residual activity is 97.5%.

For `CCN(CC)CCNC(=O)c1c(C)[nH]c(/C=C2\C(=O)Nc3ccc(Cl)cc32)c1C`, the residual activity stood at 86.2%.

Another assay concerns the target MATK (human) (UniProt P42679). The assay is described as above. The following applies: compound 0.5 µM; ATP 10 µM.
For `O=C1NC(=O)C(c2cn(CCCn3ccnc3)c3ccccc23)=C1Nc1ccccc1`, the residual activity was determined as 89.8%.

Take `CCCC(=O)Oc1ccc2[nH]c(C(=O)c3cc4ccccc4[nH]3)cc2c1`: the residual activity was 93.4%.

For `CCN(CC)CCNC(=O)c1c(C)[nH]c(/C=C2\C(=O)Nc3ccc(Cl)cc32)c1C`, the residual activity turned out to be 96.8%.

Another assay addresses IKBKB (human) (UniProt O14920). Described as above. As to conditions: compound 0.5 µM; ATP 10 µM.
On to `O=C1NC(=O)C(c2cn(CCCn3ccnc3)c3ccccc23)=C1Nc1ccccc1`, for which the residual activity stood at 110%.

In the case of `CCCC(=O)Oc1ccc2[nH]c(C(=O)c3cc4ccccc4[nH]3)cc2c1`, the residual activity worked out at 98.7%.

On to `CCN(CC)CCNC(=O)c1c(C)[nH]c(/C=C2\C(=O)Nc3ccc(Cl)cc32)c1C`, for which the residual activity was determined as 101%.

For a further assay, the target named is EPHB1 (human) (UniProt P54762). The assay is described as above. As to conditions: compound 0.5 µM; ATP 10 µM.
`O=C1NC(=O)C(c2cn(CCCn3ccnc3)c3ccccc23)=C1Nc1ccccc1`: the residual activity is 102%.

Consider `CCCC(=O)Oc1ccc2[nH]c(C(=O)c3cc4ccccc4[nH]3)cc2c1`, for which the residual activity stood at 92.1%.

With `CCN(CC)CCNC(=O)c1c(C)[nH]c(/C=C2\C(=O)Nc3ccc(Cl)cc32)c1C`, the residual activity worked out at 60.8%.

The next assay addresses MYLK2 (human) (UniProt Q9H1R3). The description is as above. The following applies: compound 0.5 µM; ATP 10 µM.
For `O=C1NC(=O)C(c2cn(CCCn3ccnc3)c3ccccc23)=C1Nc1ccccc1`, the residual activity was 95.7%.

Consider `CCCC(=O)Oc1ccc2[nH]c(C(=O)c3cc4ccccc4[nH]3)cc2c1`, for which the residual activity amounted to 98.2%.

Turning to `CCN(CC)CCNC(=O)c1c(C)[nH]c(/C=C2\C(=O)Nc3ccc(Cl)cc32)c1C`, the residual activity was found to be 10%.
